Test results from patent publication US8076351B2, “Camptothecin derivatives with antitumor activity” (Indena S.p.A., priority 2006, dated 2011).
Values after ≈ are worked out from the molar mass of the structure shown. Like-named read-outs stand apart in the source and are kept apart here.

Tests used:
[1] = test system: NCI-H460 cell line (NSCL cancer); assay: Cell growth inhibition assay (cytotoxicity, cell count); type: cell-based, human
Experimental: The compounds of the invention were tested in a cytotoxicity assay on a wide spectrum of tumour cells. By way of example, the cytotoxicity data on the NCI-H460 cell line (NSCL cancer) concerning two compounds of formula (I) are reported, using camptothecin and the drugs Topotecan and SN-38 as references:
H460 Cells from human large cell lung tumor were cultured in RPMI-1640 medium containing 10% foetal calf serum. Cell sensitivity was determined by cell growth inhibition assay after 1 or 72 hr drug exposure. The cells in logarithmic growth were collected and seeded in duplicate in 6-wells plates. […] IC50 is defined as the concentration inhibiting by 50% cell growth compared with untreated controls growth.

[2] = biological target: T1, human recombinant enzyme (full length top1) (Homo sapiens, UniProt P11387); assay: Topoisomerase-I-dependent DNA rupture assay, DNA damage persistence; type: biochemical; conditions: 30 min incubation with 10 μM drug
T1 construct: the human recombinant enzyme (full length top1)
T1 sequence (P11387 1-765): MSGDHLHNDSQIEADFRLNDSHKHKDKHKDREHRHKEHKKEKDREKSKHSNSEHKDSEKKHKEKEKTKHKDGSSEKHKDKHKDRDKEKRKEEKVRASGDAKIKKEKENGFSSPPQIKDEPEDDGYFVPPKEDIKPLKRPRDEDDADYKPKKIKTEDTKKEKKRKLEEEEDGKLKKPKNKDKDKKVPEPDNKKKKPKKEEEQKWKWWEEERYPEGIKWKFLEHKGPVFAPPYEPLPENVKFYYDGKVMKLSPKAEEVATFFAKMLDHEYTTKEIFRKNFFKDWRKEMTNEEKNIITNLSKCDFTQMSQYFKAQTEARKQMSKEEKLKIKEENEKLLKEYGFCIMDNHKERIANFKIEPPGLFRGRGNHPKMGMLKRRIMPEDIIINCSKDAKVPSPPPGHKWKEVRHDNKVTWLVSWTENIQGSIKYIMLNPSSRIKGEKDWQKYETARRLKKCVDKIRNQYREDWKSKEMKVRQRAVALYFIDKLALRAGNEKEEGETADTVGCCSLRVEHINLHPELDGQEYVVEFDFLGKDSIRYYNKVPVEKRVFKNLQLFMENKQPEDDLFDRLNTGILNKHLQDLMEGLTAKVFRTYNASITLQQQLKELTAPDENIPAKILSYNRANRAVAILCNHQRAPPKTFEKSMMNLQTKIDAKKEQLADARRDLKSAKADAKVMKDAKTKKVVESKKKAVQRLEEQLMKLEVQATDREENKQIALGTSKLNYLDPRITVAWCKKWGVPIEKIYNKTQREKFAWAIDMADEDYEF
Experimental: DNA ruptures were determined using a 751-bp BamHI-EcoRI DNA SV40 purified gel (Beretta G L, Binaschi M, Zagni A N D, Capuani L, Capranico G. Tethering a type IB topoisomerase to a DNA site by enzyme fusion to a heterologous site-selective DNA-binding protein domain. Cancer Res 1999; 59:3689-97). DNA fragments were only labeled at 3′. The DNA rupture reaction (20,000 cpm/sample) was carried out in […] of 10 mM Tris-HCL (pH 7.6), 150 mM KCl, 5 mM MgCl2, 15 μg/mL BSA, 0.1 mM thiothreitol, and the human recombinant enzyme (full length top1) for 30 min at 37° C. The reactions were blocked using 0.5% SDS and 0.3 mg/mL K proteinase for 45 min. at 42° C. DNA damage persistence was tested at different times adding 0.6M NaCl after 30 min. incubation with 10 μM of the drug. After precipitation, DNA was resuspended in denaturation buffer (80% formamide, 10 mM NaOH, 0.01 M EDTA and 1 mg/mL dye) before seeding in desaturating gel (7% polyacrylamide in TBE buffer).

[3] = NCI-H460, H460 human large cell lung tumor cells, 1 or 72 hr drug exposure, counted with Coulter counter 72 hours after exposure, read-out: NCI-H460 IC50 (μg/mL) Cell count
[4] = Time 0 min after adding 0.6M NaCl
[5] = Time 1 min after adding 0.6M NaCl
[6] = Time 5 min after adding 0.6M NaCl
[7] = Time 10 min after adding 0.6M NaCl

## CC[C@@]1(O)C(=O)OCc2c1cc1n(c2=O)Cc2cc3ccccc3nc2-1 [Camptothecin]
[1]; [3]
  IC50: 0.115 ± 0.0174 µg/mL (≈ 0.33 µM)
[2]; [4]
  Persitence of DNA damage (%): 100%
[2]; [5]
  Persitence of DNA damage (%): 58%
[2]; [6]
  Persitence of DNA damage (%): 23%
[2]; [7]
  Persitence of DNA damage (%): 20%

## CC[C@@]1(O)C(=O)OCc2c1cc1c3nc4ccccc4cc3c3nnc2n13 [IDN 6137, triazole[5,4-c]16a-deoxocamptothecin]
[1]; Homo sapiens, NCI-H460, read-out: NCI-H460 IC50 (μg/mL) Cell count
  IC50: 3.8 ± 1.08 µg/mL (≈ 10.6 µM)

## CCc1c2c(nc3ccc(O)cc13)-c1cc3c(c(=O)n1C2)COC(=O)[C@]3(O)CC [SN38, 10-hydroxy-7-ethylcamptothecin]
[1]; [3]
  IC50: 0.0865 ± 0.0049 µg/mL (≈ 0.22 µM)
[2]; [4]
  Persitence of DNA damage (%): 100%
[2]; [5]
  Persitence of DNA damage (%): 60%
[2]; [6]
  Persitence of DNA damage (%): 33%
[2]; [7]
  Persitence of DNA damage (%): 28%

## CC[C@@]1(O)C(=O)OCC2=C1C=C1c3nc4ccccc4cc3C3NN=C2N13 (stereo partly drawn) [IDN 6132]
[1]; [3]
  IC50: 17 ± 4.25 µg/mL (≈ 47.2 µM)
[2]; [4]
  Persitence of DNA damage (%): 100%
[2]; [5]
  Persitence of DNA damage (%): 45%
[2]; [6]
  Persitence of DNA damage (%): 32%
[2]; [7]
  Persitence of DNA damage (%): 20%

## CC[C@@]1(O)C(=O)OCc2c1cc1n(c2=O)Cc2cc3c(CN(C)C)c(O)ccc3nc2-1 [Topotecan]
[1]; [3]
  IC50: 0.63 ± 0.44 µg/mL (≈ 1.49 µM)
[2]; [4]
  Persitence of DNA damage (%): 100%
[2]; [5]
  Persitence of DNA damage (%): 65%
[2]; [6]
  Persitence of DNA damage (%): 20%
[2]; [7]
  Persitence of DNA damage (%): 10%
